Measured values reported in ChEMBL document CHEMBL4152326 (2018).

Legend:
Assay type in all cases: functional
[1] = system: Pseudomonas aeruginosa; assay: Antimicrobial activity against Pseudomonas aeruginosa SR24 in presence of human apo-transferrin by broth microdilution method
[2] = system: Pseudomonas aeruginosa; assay: Antimicrobial activity against AmpC overproducing Pseudomonas aeruginosa SR24-12 in presence of human apo-transferrin by broth microdilution method
[3] = system: Pseudomonas aeruginosa; assay: Antimicrobial activity against IMP-1 producing Pseudomonas aeruginosa SR27001 in presence of human apo-transferrin by broth microdilution method
[4] = system: Pseudomonas aeruginosa; assay: Antimicrobial activity against VIM-2 producing Pseudomonas aeruginosa SBRKM-28 in presence of human apo-transferrin by broth microdilution method
[5] = system: Pseudomonas aeruginosa; assay: Antimicrobial activity against IMP-1 producing Pseudomonas aeruginosa SR27060 in presence of human apo-transferrin by broth microdilution method
[6] = system: Pseudomonas aeruginosa; assay: Antimicrobial activity against Pseudomonas aeruginosa 27060deltaR1 harboring deletion of R1 plasmid in presence of human apo-transferrin by broth microdilution method
[7] = system: Stenotrophomonas maltophilia; assay: Antimicrobial activity against L-1 producing Stenotrophomonas maltophilia SR21970 in presence of human apo-transferrin by broth microdilution method
[8] = system: Acinetobacter baumannii; assay: Antimicrobial activity against OXA-23/OXA-58 producing Acinetobacter baumannii SR27323 in presence of human apo-transferrin by broth microdilution method
[9] = system: Klebsiella pneumoniae; assay: Antimicrobial activity against KPC-2 producing Klebsiella pneumoniae ATCC BAA-1705 in presence of human apo-transferrin by broth microdilution method
[10] = system: Escherichia coli; assay: Antimicrobial activity against SHV-4 producing Escherichia coli ATCC BAA-200 in presence of human apo-transferrin by broth microdilution method

| Structure (SMILES) | MIC [1] | MIC [2] | MIC [3] | MIC [4] | MIC [5] | MIC [6] | MIC [7] | MIC [8] | MIC [9] | MIC [10] |
| --- | --- | --- | --- | --- | --- | --- | --- | --- | --- | --- |
| CC(C)(O/N=C(\C(=O)N[C@@H]1C(=O)N2C(C(=O)[O-])=C(C[N+]3(CCCNC(=O)c4ccc(O)c(O)c4Cl)CCCC3)CS[C@H]12)c1csc(N)n1)C(=O)O | 0.5 µg/mL | 0.5 µg/mL | 1 µg/mL | 0.125 µg/mL | 1 µg/mL | 0.25 µg/mL | 0.125 µg/mL |  |  |  |
| Nc1nc(/C(=N/O[C@H](C(=O)O)c2ccccc2)C(=O)N[C@@H]2C(=O)N3C(C(=O)[O-])=C(C[N+]4(CCNC(=O)c5ccc(O)c(O)c5Cl)CCCC4)CS[C@H]23)cs1 | 0.25 µg/mL | 0.25 µg/mL | 0.5 µg/mL | 0.125 µg/mL | 4 µg/mL | 0.5 µg/mL | 0.25 µg/mL | 0.25 µg/mL | 0.031 µg/mL | 0.5 µg/mL |
| Nc1nc(/C(=N/O[C@@H](CC(=O)O)C(=O)O)C(=O)N[C@@H]2C(=O)N3C(C(=O)[O-])=C(C[N+]4(CCNC(=O)c5ccc(O)c(O)c5Cl)CCCC4)CS[C@H]23)cs1 | 0.25 µg/mL | 0.25 µg/mL | 1 µg/mL | 0.063 µg/mL | 1 µg/mL | 0.5 µg/mL | 0.25 µg/mL | 1 µg/mL | 0.063 µg/mL | 1 µg/mL |
| CN(CC[N+]1(CC2=C(C(=O)[O-])N3C(=O)[C@@H](NC(=O)/C(=N\OC(C)(C)C(=O)O)c4csc(N)n4)[C@H]3SC2)CCCC1)C(=O)c1ccc(O)c(O)c1Cl | 0.5 µg/mL | 0.5 µg/mL | 1 µg/mL | 0.125 µg/mL | 1 µg/mL | 0.5 µg/mL | 0.25 µg/mL |  |  |  |
| COc1c(C(=O)NCC[N+]2(CC3=C(C(=O)[O-])N4C(=O)[C@@H](NC(=O)/C(=N\OC(C)(C)C(=O)O)c5csc(N)n5)[C@H]4SC3)CCCC2)ccc(O)c1O | 0.125 µg/mL | 0.125 µg/mL | 4 µg/mL |  | 4 µg/mL | 2 µg/mL | 2 µg/mL | 1 µg/mL | 0.25 µg/mL | 8 µg/mL |
| CC(C)(O/N=C(\C(=O)N[C@@H]1C(=O)N2C(C(=O)[O-])=C(C[n+]3cc4cc(NC(=O)c5ccc(O)c(O)c5Cl)ccn4c3)CS[C@H]12)c1csc(N)n1)C(=O)O | 0.25 µg/mL | 2 µg/mL | > 32 µg/mL |  | > 32 µg/mL | 4 µg/mL | > 32 µg/mL | 0.5 µg/mL | 0.25 µg/mL | 4 µg/mL |
| NCC[N+]1(CC2=C(C(=O)[O-])N3C(=O)[C@@H](NC(=O)/C(=N\O[C@@H](CNC(=O)c4ccc(O)c(O)c4Cl)C(=O)O)c4csc(N)n4)[C@H]3SC2)CCCC1 | 0.125 µg/mL | 0.063 µg/mL | 0.5 µg/mL |  | 0.125 µg/mL | 0.063 µg/mL | 16 µg/mL | 0.5 µg/mL | 0.125 µg/mL | 8 µg/mL |
| NCC[N+]1(CC2=C(C(=O)[O-])N3C(=O)[C@@H](NC(=O)/C(=N\OC[C@H](NC(=O)c4ccc(O)c(O)c4Cl)C(=O)O)c4csc(N)n4)[C@H]3SC2)CCCC1 | 0.125 µg/mL | 0.25 µg/mL | 0.25 µg/mL |  | 0.125 µg/mL | 0.063 µg/mL | > 32 µg/mL | 4 µg/mL | 0.25 µg/mL | > 32 µg/mL |
| CC(C)(O/N=C(\C(=O)N[C@@H]1C(=O)N2C(C(=O)[O-])=C(C[N@@+]3(C)C[C@H]4CN(C(=O)c5ccc(O)c(O)c5Cl)C[C@H]4C3)CS[C@H]12)c1csc(N)n1)C(=O)O | 0.25 µg/mL | 0.25 µg/mL | 4 µg/mL | 0.125 µg/mL | 4 µg/mL | 0.5 µg/mL | 0.5 µg/mL |  |  |  |
| CC(C)(O/N=C(\C(=O)N[C@@H]1C(=O)N2C(C(=O)[O-])=C(C[N+]3(CCNC(=O)c4ccc(O)c(O)c4Cl)CCCC3)CS[C@H]12)c1nsc(N)n1)C(=O)O | 0.25 µg/mL | 0.25 µg/mL | 1 µg/mL | 0.25 µg/mL | 1 µg/mL | 0.25 µg/mL | 0.25 µg/mL |  |  |  |
| CC(C)(O/N=C(\C(=O)N[C@@H]1C(=O)N2C(C(=O)[O-])=C(C[N+]34CCC(CC3)N(C(=O)c3ccc(O)c(O)c3Cl)CC4)CS[C@H]12)c1csc(N)n1)C(=O)O | 0.25 µg/mL | 0.25 µg/mL | 1 µg/mL | 0.125 µg/mL | 4 µg/mL | 1 µg/mL | 0.125 µg/mL |  |  |  |
| C[C@@H](O)[C@H]1C(=O)N2C(C(=O)O)=C(S[C@@H]3CN[C@H](C(=O)N(C)C)C3)[C@H](C)[C@H]12 [MEROPENEM] | ≤ 0.063 µg/mL | 0.125 µg/mL |  |  |  |  | > 64 µg/mL |  |  | ≤ 0.063 µg/mL |
| CC(C)(O/N=C(\C(=O)N[C@@H]1C(=O)N2C(C(=O)[O-])=C(C[n+]3cccc4c3CCCN4C(=O)c3ccc(O)c(O)c3Cl)CS[C@H]12)c1csc(N)n1)C(=O)O |  |  | 4 µg/mL | 0.125 µg/mL | 4 µg/mL |  | 0.5 µg/mL |  |  |  |
| CC(C)(O/N=C(\C(=O)N[C@@H]1C(=O)N2C(C(=O)[O-])=C(C[n+]3ccc(-c4ccc(O)c(O)c4Cl)cc3)CS[C@H]12)c1csc(N)n1)C(=O)O (stereo in doubt) |  |  | > 64 µg/mL | 0.25 µg/mL | 16 µg/mL |  | 1 µg/mL |  |  |  |
| COc1c(O)ccc(C(=O)NCC[N+]2(CC3=C(C(=O)[O-])N4C(=O)[C@@H](NC(=O)/C(=N\OC(C)(C)C(=O)O)c5csc(N)n5)[C@H]4SC3)CCCC2)c1Cl | 2 µg/mL | 8 µg/mL | 32 µg/mL | 16 µg/mL |  |  | 28 µg/mL | > 32 µg/mL | 4 µg/mL | 16 µg/mL |
| CC(C)(O/N=C(\C(=O)N[C@@H]1C(=O)N2C(C(=O)[O-])=C(C[N+]3(CCNC(=O)Nc4ccc(O)c(O)c4Cl)CCCC3)CS[C@H]12)c1csc(N)n1)C(=O)O | 1 µg/mL | 1 µg/mL | 4 µg/mL | 0.5 µg/mL | 8 µg/mL | 2 µg/mL | 4 µg/mL |  |  |  |
| CC(C)(O/N=C(\C(=O)N[C@@H]1C(=O)N2C(C(=O)[O-])=C(C[N+]3(CCNC(=O)c4[nH]cc(O)c(=O)c4Cl)CCCC3)CS[C@H]12)c1csc(N)n1)C(=O)O | 2 µg/mL | 24 µg/mL |  | 4 µg/mL | > 32 µg/mL | 8 µg/mL | 4 µg/mL | 32 µg/mL | 2 µg/mL | 16 µg/mL |
| CO/N=C(\C(=O)N[C@@H]1C(=O)N2C(C(=O)[O-])=C(C[N+]3(CCNC(=O)c4ccc(O)c(O)c4Cl)CCCC3)CS[C@H]12)c1csc(N)n1 |  |  | 4 µg/mL | 0.5 µg/mL | 32 µg/mL |  | 2 µg/mL |  |  |  |
| CC(C)(O/N=C(\C(=O)N[C@@H]1C(=O)N2C(C(=O)[O-])=C(C[N+]3(CCNC(=O)c4ccc(=O)n(O)c4)CCCC3)CS[C@H]12)c1csc(N)n1)C(=O)O | 2 µg/mL | 2 µg/mL | 16 µg/mL |  | 8 µg/mL | 4 µg/mL | 4 µg/mL | 32 µg/mL | 2 µg/mL | 8 µg/mL |
| CC(C)(O/N=C(\C(=O)N[C@@H]1C(=O)N2C(C(=O)[O-])=C(C[N+]3(Cc4nnc(-c5ccc(O)c(O)c5Cl)o4)CCCC3)CS[C@H]12)c1csc(N)n1)C(=O)O | 0.5 µg/mL | 0.5 µg/mL | 2 µg/mL | 0.125 µg/mL | 2 µg/mL | 0.5 µg/mL | 0.5 µg/mL |  |  |  |
| CC(C)(O/N=C(\C(=O)N[C@@H]1C(=O)N2C(C(=O)[O-])=C(C[N+]3(C)CCN(C(=O)c4ccc(O)c(O)c4Cl)CC3)CS[C@H]12)c1csc(N)n1)C(=O)O | 0.125 µg/mL | 0.125 µg/mL | 4 µg/mL |  | 8 µg/mL | 0.25 µg/mL | 1 µg/mL | 1 µg/mL | 0.125 µg/mL | 32 µg/mL |
| C[N+]1(CC2=C(C(=O)[O-])N3C(=O)[C@@H](NC(=O)/C(=N\O[C@@H](CNC(=O)c4ccc(O)c(O)c4Cl)C(=O)O)c4csc(N)n4)[C@H]3SC2)CCCC1 | 0.125 µg/mL | 0.5 µg/mL | 8 µg/mL |  | 4 µg/mL | 0.5 µg/mL | 16 µg/mL | 1 µg/mL | 0.25 µg/mL | > 32 µg/mL |
| C[C@@H](C[N+]1(CC2=C(C(=O)[O-])N3C(=O)[C@@H](NC(=O)/C(=N\OC(C)(C)C(=O)O)c4csc(N)n4)[C@H]3SC2)CCCC1)NC(=O)c1ccc(O)c(O)c1Cl | 0.25 µg/mL | 0.25 µg/mL | 1 µg/mL | 0.125 µg/mL | 2 µg/mL | 0.25 µg/mL | 0.25 µg/mL |  |  |  |
| C[N+]1(CC2=C(C(=O)[O-])N3C(=O)[C@@H](NC(=O)/C(=N\OC[C@H](NC(=O)c4ccc(O)c(O)c4Cl)C(=O)O)c4csc(N)n4)[C@H]3SC2)CCCC1 | 0.125 µg/mL | 1 µg/mL | 4 µg/mL | 0.125 µg/mL | 4 µg/mL | 2 µg/mL | 8 µg/mL |  |  |  |
| CC(C)(O/N=C(\C(=O)N[C@@H]1C(=O)N2C(C(=O)[O-])=C(C[N+]3(C)C[C@H]4C[C@@H]3CN4C(=O)c3ccc(O)c(O)c3Cl)CS[C@H]12)c1csc(N)n1)C(=O)O (stereo not given in full) | 0.25 µg/mL | 0.5 µg/mL | 2 µg/mL | 0.25 µg/mL | 4 µg/mL | 2 µg/mL | 0.5 µg/mL |  |  |  |
| CC(C)(O/N=C(\C(=O)N[C@@H]1C(=O)N2C(C(=O)[O-])=C(C[N+]3(CCN)CCCC3)CS[C@H]12)c1csc(N)n1)C(=O)O | 2 µg/mL | 8 µg/mL | 32 µg/mL |  | 16 µg/mL | 4 µg/mL | > 32 µg/mL | 8 µg/mL | 8 µg/mL | 16 µg/mL |
